We go through 3 compounds from patent US8030547B2, “Gene coding for acetolactate synthase” (priority 2002, dated 2011).

In test [1] the target is T1, GST fusion P171H/W548L/S627I mutant ALS protein (Oryza sativa subsp. japonica, UniProt Q6K2E8, P171H/S627I/W548L).
T1 construct: made in house; host or cells: E. coli, pGEX-2T(ALS-P171H, W548L, S627I mutant); crude supernatant
Put plainly: Herbicide sensitivity of ALS protein expressed in E. coli (crude enzyme solution), P171H/W548L/S627I. The test is classed as biochemical, rice (Oryza sativa var. Kinmaze). The note with it: for RS ratio/ predicted RS ratio / Predicted RS ratio: P171H/W548L/S627I mutant; for RS ratio: P171H/W548L/S627I mutant vs wild type; for Predicted RS ratio: product of RS ratios of the 1-point mutants. As to the method:
(§1) ALS activity resulting from the mutant ALS protein contained in the eluted fractions apportioned into each test tube for apportioning was measured as follows. A reaction solution to be used in a measurement reaction was prepared by mixing an eluted fraction to be measured with a solution comprising 20 mM sodium pyruvate, 0.5 mM TPP, 0.5 mM MgCl2, 10 μM FAD and 20 mM potassium phosphate buffer (pH 7.5). One ml of this reaction solution was used. After the eluted fraction to be measured was added, the measurement reaction was performed at 30° C. for 40 to 60 minutes. Then, the reaction was stopped by addition of 0.1 ml of 6N sulfuric acid (or 0.25 N sodium hydroxide).
(§2) After the reaction was stopped, the reaction solution was incubated at 60° C. for 10 minutes, thereby converting acetolactate contained in the reaction solution to acetoin.
(§3) Then, to quantify acetoin contained in the reaction solution, 1 ml of 0.5% (w/v) creatine and 1 ml of 5% (w/v) α-naphthol dissolved in 2.5 N sodium hydroxide was added to the reaction solution, followed by incubation at 37° C. for 10 minutes. Acetoin was then quantified by color comparison of the absorbance (at 525 nm) of the reaction solution, thereby evaluating ALS activity. In addition, since the reaction solution contained a small amount of sodium pyruvate, reaction time 0 was used as control.
E. coli transformed with pGEX-2T(ALS-wild) constructed in Example 3(5), E. coli transformed with pGEX-2T(ALS-W548L mutant) constructed in Example 5, E. coli transformed with pGEX-2T(ALS-S627I mutant) constructed in Example 5, E. coli transformed with pGEX-2T(ALS P171H mutant) constructed in Example 6, E. coli transformed with pGEX-2T(ALS R172S mutant) constructed in Example 6, E. coli transformed with pGEX-2T(ALS P171H, R172S mutant) constructed in Example 7, E. coli transformed with pGEX-2T(ALS-P171H, W548L mutant) constructed in Example 8, E. coli transformed with pGEX-2T(ALS-P171H, S627I mutant) constructed in Example 8, and E. coli transformed with pGEX-2T(ALS-P171H, W548L, S627I mutant) constructed in Example 9 were respectively shake-cultured (pre-culture) at 27° C. in 2 ml of LB liquid medium containing ampicillin. These types of E. coli were respectively cultured in 250 ml of LB liquid medium containing ampicillin using 1 ml of the pre-culture solution. After culturing overnight, 1 mM IPTG was added to the media, and then culturing was performed for a further 3 to 4 hours, so that the expression of GST fusion protein was induced. In addition, the cells were stored at −80° C. after washing.
Preparation and purification of ALS from E. coli were performed by the following method. First, the pellet of the transformant E. coli stored at −80° C. was suspended in ALS extraction buffer (potassium phosphate buffer (pH 7.5) containing 30% glycerol and 0.5 mM MgCl2). Specifically, 2.5 ml of the buffer was added to the pellet obtained from 50 ml of the culture solution. The suspension was subjected to ultrasonication (Heat Systems-Ultrasonics, Sonicator W-225R, micro chip, output control 8, interval of approximately 1 second, twice (40 seconds each)), and subjected to centrifugation at 15000×g, 4° C. for 20 minutes, thereby obtaining the supernatant as a crude enzyme solution.
Herbicide sensitivity of the wild type ALS protein and that of mutant ALS protein were examined using the 9 types of crude enzyme solutions obtained in Example 10. Herbicide sensitivity test was performed according to procedures almost the same as those in Example 2. However, in this example, reaction temperature was 37° C., reaction time was 30 minutes, and 10 mM valine was added to the reaction solution to inhibit ALS activity derived from E. coli. Further, three types of herbicides, bispyribac-sodium, pyrithiobac-sodium, and pyriminobac, were used as PC herbicides; chlorsulfuron was used as a sulfonylurea herbicide; and imazaquin was used as an imidazolinon herbicide. […]

The test system of test [2] is mutant ALS protein of Sr line. The test is described as follows: Herbicide sensitivity of partially purified ALS protein (ALS activity inhibition), Sr line. The test is classed as biochemical, Oryza sativa var. Kinmaze. The following applies: I50 of the resistant mutant divided by I50 of the wild type. As to the method: (§4) First, 200 g or more of resistant mutant was prepared by a liquid culture method (no supplementation with bispyribac-sodium), using a composition as shown in Table 3 excluding Gelrite. Then, about 150 g of the resistant mutant was homogenized using Hiscotron in a volume of buffer-1 [100 mM potassium phosphate buffer (pH 7.5) containing 20% (v/v) glycerol, […] thiamin pyrophosphate (TPP), 10 μM flavin adenine dinucleotide (FAD), 0.5 mM MgCl2, and a volume of polyvinyl polypyrrolidone one-tenth that of tissue volume] 3-fold greater than tissue volume. The homogenate was filtered through nylon gauze, and then centrifuged at 15000×g for 20 minutes. Ammonium sulfate was added to the centrifuged supernatant to 50% saturation, and then allowed to stand in ice for approximately 1 hour. The mixture was again centrifuged at 15000×g for 20 minutes, and then the precipitated fraction was dissolved in approximately 30 ml of buffer-2 [10 mM Tris hydrochloric acid buffer (pH 7.5) containing 20% (v/v) glycerol, 0.5 mM TPP and 0.5 mM MgCl2]. The mixture was again centrifuged at 15000×g for 20 minutes, and then the supernatant fraction was applied to a Sephadex G-25 (Amersham Bioscience). About 40 ml of the fraction that had passed through the column was collected as a crude enzyme solution.
(§5) Next, the protein concentration of the crude enzyme solution was measured by the Bradford method according to the manual of Bio-Rad Protein Assay. The crude enzyme solution was then filtered through a Whatman filter (Whatman), and then the crude enzyme solution in an appropriate protein amount (10 to 15 ml) was applied to three vertically-connected HiTrap Q columns (Amersham Bioscience) using a FPLC device (Amersham Bioscience). After protein component was adsorbed using HiTrap Q, unadsorbed fractions were washed out using buffer-2 having a volume 3 to 5 fold greater than the bed volume. Then, the adsorbed protein component was eluted using an eluate having a volume 10 fold greater than the bed volume (150 ml). Here, the eluate was prepared by dissolving KCl with a linear concentration gradient (0 to 0.4 M) into buffer-2. The eluate containing the eluted protein component was apportioned, 5 ml each, into a plurality of test tubes for apportioning. Further, to stabilize ALS protein contained in the eluted protein component, 0.5 ml of buffer-2 containing 20 mM sodium pyruvate had been previously added to each test tube for apportioning.
as §1, §2, §3
(§6) Using the enzyme solution containing the mutant ALS protein, sensitivity of the mutant ALS protein to bispyribac-sodium, chlorsulfuron and imazaquin was examined. […]

Test [3] addresses T2, mutant ALS protein of Sr line (Oryza sativa subsp. japonica, UniProt Q6K2E8).
T2 construct: other: partially purified ALS, 30° C., probit analysis
The description is as above. The note with it: read-out: I50 (nM) Sr; partially purified ALS, 30° C., probit analysis. Format: biochemical, Oryza sativa var. Kinmaze. As to the method:
as §4, §5, §1, §2, §3, §6

[4] abbreviates: read-out: inhibition % at the highest concentration among the concentrations tested.

SMILES strings stand for the structures.

T1 sequence (Q6K2E8 44-644 P171H/W548L/S627I): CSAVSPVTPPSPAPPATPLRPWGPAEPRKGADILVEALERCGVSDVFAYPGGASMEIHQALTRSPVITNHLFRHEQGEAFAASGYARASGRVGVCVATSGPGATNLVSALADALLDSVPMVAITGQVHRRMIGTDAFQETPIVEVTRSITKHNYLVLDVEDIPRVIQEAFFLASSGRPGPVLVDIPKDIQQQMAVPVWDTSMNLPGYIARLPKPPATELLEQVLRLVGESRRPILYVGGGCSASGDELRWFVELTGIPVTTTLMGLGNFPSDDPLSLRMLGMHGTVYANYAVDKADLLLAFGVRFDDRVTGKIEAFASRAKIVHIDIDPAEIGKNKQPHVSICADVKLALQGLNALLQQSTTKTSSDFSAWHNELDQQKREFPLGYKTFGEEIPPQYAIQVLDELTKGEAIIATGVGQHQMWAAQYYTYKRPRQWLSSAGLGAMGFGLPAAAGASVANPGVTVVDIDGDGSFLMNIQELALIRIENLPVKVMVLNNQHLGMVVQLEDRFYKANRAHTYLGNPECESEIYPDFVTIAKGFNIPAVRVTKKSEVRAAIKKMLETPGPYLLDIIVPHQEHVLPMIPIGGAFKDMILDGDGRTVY
T2 sequence (Q6K2E8 whole entry W548L/S627I, form open): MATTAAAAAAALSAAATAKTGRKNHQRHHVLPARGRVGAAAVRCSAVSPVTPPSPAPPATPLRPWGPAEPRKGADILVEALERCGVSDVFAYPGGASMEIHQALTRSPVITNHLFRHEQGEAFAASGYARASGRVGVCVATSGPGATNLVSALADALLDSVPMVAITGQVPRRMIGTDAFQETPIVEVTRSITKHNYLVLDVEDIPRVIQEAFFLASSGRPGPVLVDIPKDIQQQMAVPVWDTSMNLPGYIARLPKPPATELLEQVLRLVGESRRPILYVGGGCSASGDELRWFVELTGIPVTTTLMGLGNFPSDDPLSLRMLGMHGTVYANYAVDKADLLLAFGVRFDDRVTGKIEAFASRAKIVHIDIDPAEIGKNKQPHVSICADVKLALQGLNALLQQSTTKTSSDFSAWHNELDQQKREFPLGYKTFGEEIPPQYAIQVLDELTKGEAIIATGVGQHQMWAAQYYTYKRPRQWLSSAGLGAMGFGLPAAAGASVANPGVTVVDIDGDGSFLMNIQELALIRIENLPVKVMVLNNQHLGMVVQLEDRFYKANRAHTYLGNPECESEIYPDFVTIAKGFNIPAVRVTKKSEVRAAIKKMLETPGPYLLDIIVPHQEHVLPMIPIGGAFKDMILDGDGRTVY

For the compound `COc1cc(OC)nc(Oc2cccc(Oc3nc(OC)cc(OC)n3)c2C(=O)O)n1` [bispyribac-sodium], in test [1], the “RS ratio/ predicted RS ratio” value is greater than 0.084, the RS ratio is on record as greater than 16000 and the “Predicted RS ratio” value was 190000. Moreover, the inhibition at 100 µM in test [1] (setting [4]) was determined as 1.1%. Further, the “RS ratio Sr” value in test [2] is on record as 74.8. Besides, the IC50 in test [3] came out at 421 nM.
As for `COc1nc(C)nc(NC(=O)NS(=O)(=O)c2ccccc2Cl)n1` [chlorsulfuron], in test [1], the “RS ratio/ predicted RS ratio” value is recorded as greater than 0.24 and the “Predicted RS ratio” value is reported as 160000. Besides, the inhibition at 500 µM in test [1] (setting [4]) turned out to be 30%. In addition, the “RS ratio Sr” value in test [2] stood at 5.36. Further, the IC50 in test [3] amounted to 92.8 nM.
Regarding `CC(C)C1(C)N=C(c2nc3ccccc3cc2C(=O)O)NC1=O` (stereo not shown) [imazaquin], in test [1], the RS ratio is listed as greater than 45 and the “Predicted RS ratio” value was greater than 460. In addition, the inhibition at 100 µM in test [1] (setting [4]) worked out at 15%. In addition, the “RS ratio Sr” value in test [2] is recorded as 11.3. Moreover, the IC50 in test [3] was found to be 16700 nM.
